Patent US10882837B2, “Amide compounds and use thereof” (ALPHALA CO., LTD., priority 2017, dated 2021)

How the values were obtained:
[1] = target: T1, glucagon receptor (GCGR) (Homo sapiens, UniProt P47871); assay: Glucagon cAMP inhibition assay (Cisbio cAMP Dynamic 2 HTRF); format: cell-based; conditions: GCGR overexpressed CHO-K1 cells or human primary hepatocytes (not specified); glucagon at EC50
T1 construct: expressed in transfected cells; host or cells: CHO-K1
Outline: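 GCGR-overexpressing CHO-K1 cells or human primary hepatocytes in HBSS with 0.1% BSA and 800 nM IBMX, pre-incubated 30 min with compound (1% DMSO final), then stimulated 30 min at room temperature with glucagon at its EC50. cAMP measured by HTRF after 60 min lysis; IC50 from non-linear regression.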

[2] = target: GCGR (Homo sapiens, UniProt P47871); assay: I125-glucagon binding assay (competition, GCGR membrane fractions); set-up: expressed in transfected cells; host or cells: CHO-K1; inhibition: dose or concentration left out as unconfirmed; conditions: for IC50: competition with I125-glucagon 0.0625 nM, membrane fractions from GCGR overexpressed CHO-K1 cells
Outline: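 Membranes from CHO-K1 cells overexpressing GCGR (7.5 µg/well) were preincubated 5 min with serially diluted compound in 50 mM Tris pH 7.4, 0.5% BSA. I125-glucagon was then added at 0.0625 nM final and incubated 30 min at 25 °C. After filtration, bound radioactivity was counted and IC50 derived by non-linear regression.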

T1 sequence (P47871 26-477, species assumed): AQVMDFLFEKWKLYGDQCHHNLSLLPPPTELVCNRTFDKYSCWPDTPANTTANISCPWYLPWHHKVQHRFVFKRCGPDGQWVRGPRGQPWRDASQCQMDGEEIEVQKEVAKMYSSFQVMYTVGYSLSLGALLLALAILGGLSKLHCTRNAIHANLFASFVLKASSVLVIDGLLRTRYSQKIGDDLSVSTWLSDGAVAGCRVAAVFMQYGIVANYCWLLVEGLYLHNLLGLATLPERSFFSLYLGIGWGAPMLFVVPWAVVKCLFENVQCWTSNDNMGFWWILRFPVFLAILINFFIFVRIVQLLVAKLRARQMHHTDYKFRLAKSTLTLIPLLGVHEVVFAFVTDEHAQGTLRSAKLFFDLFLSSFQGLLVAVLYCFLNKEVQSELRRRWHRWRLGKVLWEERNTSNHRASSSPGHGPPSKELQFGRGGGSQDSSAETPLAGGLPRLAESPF
Chain of GCGR (P47871 26-477, species assumed): as above

Row | Structure (SMILES) | IC50 [1] [nM] | IC50 [2] [nM] | inhibition at 30 µM ([2]; compound at 30 μM, read-out: percentage of inhibition (number in parenthesis in IC50 binding column)) [%] | inhibition ([2]; read-out: percentage of inhibition (number in parenthesis in IC50 binding column)) [%]
1 | CCOC(=O)CCNC(=O)c1ccc(NC(c2ccc(-c3nnc(-c4ccc(F)cc4)o3)cc2)C(C)C)cc1 (centres unmarked) [Compound 1-17] | 322 | 3510 | 53 | –
2 | CCOC(=O)CCNC(=O)c1ccc(N[C@H](c2ccc(-c3nnc(C(F)(F)F)o3)cc2)C(C)C)cc1 [Compound 1-55, ethyl (S)-3-(4-((2-methyl-1-(4-(5-(trifluoromethyl)-1,3,4-oxadiazol-2-yl)phenyl)propyl)amino)benzamido)propanoate] | 1360 | > 30000 | – | –
3 | CCCCC(Nc1ccc(C(=O)NCCC(=O)OCC)cc1)c1ccc(-c2nc3ccccc3o2)cc1 (centres unmarked) [Compound 4-2, ethyl 3-(4-((1-(4-(benzo[d]oxazol-2-yl)phenyl)pentyl)amino)benzamido)propanoate] | 119 | 799 | – | –
4 | CCOC(=O)CCNC(=O)c1ccc(N[C@@H](CC(C)C)c2ccc(-c3nnc(-c4ccccc4)o3)cc2)cc1 [Compound 1-59, ethyl (S)-3-(4-((3-methyl-1-(4-(5-phenyl-1,3,4-oxadiazol-2-yl)phenyl)butyl)amino)benzamido)propanoate] | 26 | > 30000 | – | –
5 | CCCC[C@@H](Nc1ccc(C(=O)NCCC(=O)OCC)cc1)c1ccc(-c2noc(C(F)(F)F)n2)cc1 [Compound 2-46, ethyl (R)-3-(4-((1-(4-(5-(trifluoromethyl)-1,2,4-oxadiazol-3-yl)phenyl)pentyl)amino)benzamido)propanoate] | 2880 | > 30000 | – | –
6 | CCOC(=O)CCNC(=O)c1ccc(N[C@H](c2ccc(-c3nc4ccccc4o3)cc2)C(C)C)nc1 [Compound 4-29, ethyl (S)-3-(6-((1-(4-(benzo[d]oxazol-2-methylpropyl)amino)nicotinamido propanoate] | 53.4 | 285 | – | –
7 | COc1ccc(-c2nnc(-c3ccc(C(Nc4ccc(C(=O)NCCC(=O)O)cc4)C(C)C)cc3)o2)cc1 (centres unmarked) [Compound 1-26, 3-(4-((1-(4-(5-(4-methoxyphenyl)-1,3,4-oxadiazol-2-yl)phenyl)-2-methylpropyl)amino)benzamido)propanoic acid] | 4380 | 198 | – | –
8 | CCOC(=O)CCNC(=O)c1ccc([C@H](Nc2ccc(-c3nnc(-c4ccccc4)o3)cc2)C(C)C)cc1 [Compound 3-13, (R)-ethyl 3-(4-(2-methyl-1-(4-(5-phenyl-1,3,4-oxadiazol-2-yl)phenylamino)propyl)benzamido)propanoate] | 207 | > 30000 | – | –
9 | CCOC(=O)CCNC(=O)c1ccc(N[C@@H](CC(C)C)c2ccc(-c3nc4ccccc4o3)cc2)cc1 [Compound 4-17, ethyl (S)-3-(4-((1-(4-(benzo[d]oxazol-2-yl)phenyl)-3-methylbutyl)amino)benzamido)propanoate] | 96 | 745 | – | –
10 | CCOC(=O)CCNC(=O)c1ccc(N[C@H](c2ccc(-c3noc(-c4ccccc4)n3)cc2)C(C)CC)cc1 (stereo partly drawn) [Compound 2-18, ethyl 3-(4-(((1S)-2-methyl-(4-(5-phenyl-1,2,4-oxadiazol-3-yl)phenyl)butyl)amino)benzamido)propanoate] | 46.7 | 830 | – | –
11 | COC(=O)CCNC(=O)c1ccc(NC(c2ccc(-c3nnc(-c4ccccc4)o3)cc2)C(C)C)cc1 (centres unmarked) [Compound 1-2, Methyl 3-(4-((2-methyl-1-(4-(5-phenyl-1,3,4-oxadiazol-2-yl)phenyl)propyl)amino)benzamido)propanoate] | 113 | 1220 | – | –
12 | CCOC(=O)CCNC(=O)c1ccc(NC(CC(C)C)c2ccc(-c3noc(C(C)(C)C)n3)cc2)cc1 (centres unmarked) [Compound 2-5, ethyl 3-(4-((1-(4-(5-(tert-butyl)-1,2,4-oxadiazol-3-yl)phenyl)-3-methylbutyl)amino)benzamido)propanoate] | 395 | 6250 | – | 63
13 | CCOC(=O)CCNC(=O)c1ccc(N[C@H](c2ccc(-c3nc4ccccc4s3)cc2)C(C)C)nc1 [Compound 4-27, ethyl (S)-3-(6-((1-(4-(benzo[d]thiazol-2-yl)phenyl)-2-methylpropyl)amino)nicotinamido)propanoate] | 42.3 | 127 | – | –
14 | CCCC[C@H](Nc1ccc(C(=O)NCCC(=O)OCC)cc1)c1ccc(-c2noc(-c3ccccn3)n2)cc1 [Compound 2-37, ethyl (S)-3-(4-((1-(4-(5-(pyridin-2-yl)-1,2,4-oxadiazol-3-yl)phenyl)pentyl)amino)benzamido)propanoate] | 89.7 | 1100 | – | –
15 | CCOC(=O)CCNC(=O)c1ccc(C(Nc2ccc(-c3nnc(-c4ccccc4)o3)cc2)C(C)CC)cc1 (centres unmarked) [Compound 3-5, ethyl 3-(4-(2-methyl-1-((4-(5-phenyl-1,3,4-oxadiazol-2-yl)phenyl)amino)butyl)benzamido)propanoate] | 311 | 963 | – | –
16 | CCOC(=O)CCNC(=O)c1ccc(C(Oc2ccc(-c3nc4ccccc4s3)cc2)C(C)C)cc1 (centres unmarked) [Compound 7-3, Ethyl 3-(4-(1-(4-(benzo[d]thiazol-2-yl)phenoxy)-2-methylpropyl)benzamido)propanoate] | 292 | 2110 | – | –
17 | O=C(O)CCNC(=O)c1ccc(N[C@H](c2ccc(-c3nc4ccccc4o3)cc2)C2CCCC2)cc1 [Compound 4-24, (S)-3-(4-(((4-(benzo[d]oxazol-2-yl)phenyl)(cyclopentyl)methyl)amino)benzamido)propanoic acid] | 862 | 95 | – | –
18 | CCOC(=O)CCNC(=O)c1ccc(N[C@@H](CC(C)C)c2ccc(-c3nc(-c4ccccc4)no3)cc2)cc1 [Compound 5-1, ethyl (S)-3-(4-((3-methyl-1-(4-(3-phenyl-1,2,4-oxadiazol-5-yl)phenyl)butyl)amino)benzamido)propanoate] | 52 | 637 | – | –
19 | CC(C)[C@@H](Nc1ccc(C(=O)NCCC(=O)O)cc1)c1ccc(-c2nnc(-c3ccccc3)o2)cc1 [Compound 1-42, (R)-3-(4-(2-methyl-1-(4-(5-phenyl-1,3,4-oxadiazol-2-yl)phenyl)propylamino)benzamido)propanoic acid] | 2930 | 2920 | – | –
20 | CCOC(=O)CCNC(=O)c1ccc(NC(c2ccc(-c3noc(-c4ccccc4)n3)cc2)C2CCCCC2)cc1 (centres unmarked) [Compound 2-16, ethyl 3-(4-((cyclohexyl(4-(5-phenyl-1,2,4-oxadiazol-3-yl)phenyl)methyl)amino)benzamido)propanoate] | 438 | 178 | – | –
21 | CC(C)C(Nc1ccc(C(=O)NCCC(=O)O)cc1)c1ccc(-c2nnc(-c3ccc(F)cc3)o2)cc1 (centres unmarked) [Compound 1-18, 3-(4-((1-(4-(5-(4-Fluorophenyl)-1,3,4-oxadiazol-2-yl)phenyl)-2-methylpropyl)amino)benzamido)propanoic acid] | 4350 | 122 | – | –
22 | CCC(C)[C@H](Nc1ccc(C(=O)NCCC(=O)O)cc1)c1ccc(-c2nc(-c3ccccc3)no2)cc1 (stereo partly drawn) [Compound 5-6, 3-(4-(((1S)-2-methyl-1-(4-(3-phenyl-1,2,4-oxadiazol-5-yl)phenyl)butyl)amino)benzamido)propanoic acid] | 239 | 13.1 | – | –
23 | CCCC[C@@H](Nc1ccc(C(=O)NCCC(=O)O)cc1)c1ccc(-c2nnc(C(F)(F)F)o2)cc1 [Compound 1-54, (R)-3-(4-((1-(4-(5-(trifluoromethyl)-1,3,4-oxadiazol-2-yl)phenyl)pentyl)amino)benzamido)propanoic acid] | 3670 | 3070 | – | –
24 | CC(C)[C@@H](Nc1ccc(C(=O)NCCC(=O)O)cc1)c1ccc(-c2nc3ccccc3o2)cc1 [Compound 4-8, (R)-3-(4-((1-(4-(benzo[d]oxazol-2-yl)phenyl)-2-methylpropyl)amino)benzamido)propanoic acid] | 1080 | 372 | – | –
25 | CCCCC(Nc1ccc(C(=O)NCCC(=O)OCC)cc1)c1ccc(-c2nnc(-c3ccccn3)o2)cc1 (centres unmarked) [Compound 1-15] | 306 | 578 | – | –
26 | CCOC(=O)CCNC(=O)c1ccc([C@@H](Nc2ccc(-c3nnc(-c4ccccc4)o3)cc2)C(C)C)cc1 [Compound 3-12, (S)-ethyl 3-(4-(2-methyl-1-(4-(5-phenyl-1,3,4-oxadiazol-2-yl)phenylamino)propyl)benzamido)propanoate] | 277 | > 30000 | – | –
27 | CCCC[C@@H](Nc1ccc(C(=O)NCCC(=O)O)cc1)c1ccc(-c2noc(C(F)(F)F)n2)cc1 [Compound 2-48, (R)-3-(4-((1-(4-(5-(trifluoromethyl)-1,2,4-oxadiazol-3-yl)phenyl)pentyl)amino)benzamido)propanoic acid] | 1570 | 1180 | – | –
28 | CCCC[C@@H](Nc1ccc(C(=O)NCCC(=O)O)cc1)c1ccc(-c2nnc(-c3ccccn3)o2)cc1 [Compound 1-46] | > 30000 | 702 | – | –
29 | CC(C)[C@@H](Nc1ccc(-c2nnc(-c3ccccc3)o2)cc1)c1ccc(C(=O)NCCC(=O)O)cc1 [Compound 3-15, (R)-3-(4-(2-methyl-1-(4-(5-phenyl-1,3,4-oxadiazol-2-yl)phenylamino)propyl)benzamido)propanoic acid] | 632 | 21 | – | –
30 | CCOC(=O)CCNC(=O)c1ccc(N[C@@H](c2ccc(-c3nnc(C(F)(F)F)o3)cc2)C(C)CC)cc1 (stereo partly drawn) [Compound 1-35, ethyl 3-(4-(((1R)-2-methyl-1-(4-(5-(trifluoromethyl)-1,3,4-oxadiazol-2-yl)phenyl)butyl)amino)benzamido)propanoate] | 384 | > 30000 | – | –
